Measured values as given in ChEMBL document CHEMBL4342527, “Discovery of Novel Fungal Lanosterol 14α-Demethylase (CYP51)/Histone Deacetylase Dual Inhibitors to Treat Azole-Resistant Candidiasis” (J Med Chem, 2020).
Converted amounts (≈) assume the structure as drawn. The source made the active and inactive calls. No cut-off for these calls is given here.

How the values were obtained:
A549 = assay: Cytotoxicity against human A549 cells assessed as reduction in cell viability after 48 hrs by CCK-8 assay based spectrophotometric analysis; conditions: A549, 48 h
Candida albicans [1] = assay: Antifungal activity against azole-resistant Candida albicans 0304103 infected in ICR mouse assessed as reduction in fungal burden in kidney at 20 mg/kg, po qd for 5 days measured 24 hrs post-last dose; assay type: functional, organism-based
[2] = Selectivity index, ratio of IC50 for human A549 cells to MIC80 for azole-resistant Candida tropicalis 5008; assay type: toxicity
[3] = Selectivity index, ratio of IC50 for human A549 cells to MIC80 for azole-resistant Candida albicans 0304103; assay type: toxicity
Candida tropicalis = assay: Antifungal activity against azole-resistant Candida tropicalis 5008 after 48 hrs by spectrophotometry-based serial microdilution method; assay type: functional; conditions: Candida tropicalis, 5008, 48 h
Candida albicans [4] = assay: Inhibition of yeast to hypha transition in azole resistant Candida albicans 0304103 assessed as down regulation of CPH1 gene expression at 32 ug /ml after 16 hrs by SYBR Green I dye based RT-PCR analysis; assay type: functional, organism-based
[5] = Selectivity index, ratio of IC50 for HUVEC to MIC80 for azole-resistant Candida tropicalis 5008; assay type: toxicity; conditions: human
Candida albicans [6] = assay: Antifungal activity against azole-sensitive Candida albicans SC5314 after 48 hrs by spectrophotometry-based serial microdilution method; assay type: functional; conditions: Candida albicans, SC5314, 48 h; read-out: MIC80
Candida albicans [7] = assay: Antifungal activity against Candida albicans 0304103 assessed as inhibition of yeast to hypha morphological transition at 8 ug/ml after 4 hrs by differential interference contrast microscopic analysis relative to control; assay type: functional; conditions: Candida albicans, 0304103, 4 h
Candida albicans [8] = assay: Inhibition of biofilm formation in azole resistant Candida albicans 0304103 assessed as down regulation of ALS3 gene expression at 32 ug /ml after 16 hrs by SYBR Green I dye based RT-PCR analysis; assay type: functional, organism-based
HUVEC = assay: Cytotoxicity against HUVEC assessed as reduction in cell viability after 48 hrs by CCK-8 assay based spectrophotometric analysis; conditions: Homo sapiens
Candida albicans [9] = assay: Antifungal activity against azole-resistant Candida albicans 0304103 after 48 hrs by spectrophotometry-based serial microdilution method; assay type: functional; conditions: Candida albicans, 0304103, 48 h
[10] = Selectivity index, ratio of IC50 for HUVEC to MIC80 for azole-resistant Candida albicans 4108; assay type: toxicity; conditions: human
Candida albicans [11] = assay: Antifungal activity against azole-resistant Candida albicans 7781 after 48 hrs by spectrophotometry-based serial microdilution method; assay type: functional; conditions: Candida albicans, 7781, 48 h
[12] = Selectivity index, ratio of IC50 for HUVEC to MIC80 for azole-resistant Candida albicans 7781; assay type: toxicity; conditions: human
Candida albicans [13] = assay: Antifungal activity against azole-resistant Candida albicans 0304103 infected in ICR mouse assessed as inhibition of fungal infection in kidney at 20 mg/kg, ip qd for 5 days and measured on day 6 by periodic acid schiff staining-based histological analysis; assay type: functional, organism-based
[14] = target: T1, Lanosterol 14-alpha demethylase (Candida albicans (strain SC5314 / ATCC MYA-2876) (Yeast), UniProt P10613); assay: Inhibition of CYP51 in azole-resistant Candida albicans 0304103 assessed as eburicol level at 0.5 ug/ml after 24 hrs by GC-MS analysis relative to control; parameters: scale not given: the % may be the effect or the level left
T1 sequence (P10613 whole entry): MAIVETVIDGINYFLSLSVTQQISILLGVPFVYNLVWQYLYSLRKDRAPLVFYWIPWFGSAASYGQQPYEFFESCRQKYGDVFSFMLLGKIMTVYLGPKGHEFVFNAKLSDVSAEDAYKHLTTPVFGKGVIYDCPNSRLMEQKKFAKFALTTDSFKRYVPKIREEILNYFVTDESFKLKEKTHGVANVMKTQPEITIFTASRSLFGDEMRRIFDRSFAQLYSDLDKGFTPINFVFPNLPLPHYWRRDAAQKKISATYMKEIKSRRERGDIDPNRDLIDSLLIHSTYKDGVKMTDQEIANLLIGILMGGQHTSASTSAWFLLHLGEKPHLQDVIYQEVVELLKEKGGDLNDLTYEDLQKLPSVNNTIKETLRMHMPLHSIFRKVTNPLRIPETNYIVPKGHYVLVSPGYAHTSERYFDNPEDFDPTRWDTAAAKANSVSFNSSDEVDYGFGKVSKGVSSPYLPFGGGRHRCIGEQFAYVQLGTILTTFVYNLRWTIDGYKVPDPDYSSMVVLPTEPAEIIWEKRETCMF

Candida albicans [15] = assay: Inhibition of HDAC in azole-resistant Candida albicans 0304103 assessed as reduction in MDR1 gene expression at 32 ug/ml after 16 hrs by SYBR Green-1 dye based RT-PCR analysis; conditions: 304103
Candida albicans [16] = assay: Antifungal activity against Candida albicans 0304103 assessed as inhibition of yeast to hypha morphological transition at 1 ug/ml after 4 hrs by differential interference contrast microscopic analysis relative to control; assay type: functional; conditions: Candida albicans, 0304103, 4 h
[17] = target: T1, Lanosterol 14-alpha demethylase; assay: Inhibition of CYP51 in azole-resistant Candida albicans 0304103 assessed as obtusifoliol level at 0.5 ug/ml after 24 hrs by GC-MS analysis relative to control; parameters: scale not given: the % may be the effect or the level left
Candida albicans [18] = assay: Fungistatic activity agaisnt Candida albicans 0304103 at 16 ug/ml preincubated for up to 24 hrs followed by replating on SDA plate and measured after 48 hrs by time kill assay; assay type: functional, organism-based

CN(Cc1ccc(-n2cnn(CCCCc3ccc(C(=O)NO)cc3)c2=O)cc1)CC(O)(Cn1cncn1)c1ccc(F)cc1F (racemic)
IC50 (A549): 6.7 to 25.4 µM
Activity (Candida albicans [1]): Active
selectivity ratio [2]: 2 to 16
selectivity ratio [3]: 2 to 16
MIC80 (Candida tropicalis): 8 µg/mL (≈ 12.6 µM)
inhibition (Candida albicans [4]): Active
selectivity ratio [5]: 2 to 16
MIC80 (Candida albicans [6]): 4 µg/mL (≈ 6.32 µM)
inhibition at 8 µg/mL (Candida albicans [7]): 100%
inhibition (Candida albicans [8]): Active
IC50 (HUVEC): 6.7 to 25.4 µM
MIC80 (Candida albicans [9]): 2 µg/mL (≈ 3.16 µM)
selectivity ratio [10]: 2 to 16
MIC80 (Candida albicans [11]): 2 µg/mL (≈ 3.16 µM)
selectivity ratio [12]: 2 to 16
inhibition (Candida albicans [13]): Active
Activity [14]: 13.22%

CN(Cc1ccc(OCCCOc2ccc(CC(=O)NO)cc2)cc1)CC(O)(Cn1cncn1)c1ccc(F)cc1F (racemic)
IC50 (A549): 6.7 to 25.4 µM
Activity (Candida albicans [1]): Active
selectivity ratio [2]: 2 to 16
selectivity ratio [3]: 2 to 16
MIC80 (Candida tropicalis): 0.25 µg/mL (≈ 0.43 µM)
inhibition (Candida albicans [4]): Active
inhibition (Candida albicans [15]): Active
selectivity ratio [5]: 2 to 16
MIC80 (Candida albicans [6]): 0.125 µg/mL (≈ 0.215 µM)
inhibition at 1 µg/mL (Candida albicans [16]): 100%
inhibition (Candida albicans [8]): Active
IC50 (HUVEC): 6.7 to 25.4 µM
MIC80 (Candida albicans [9]): 0.25 µg/mL (≈ 0.43 µM)
Activity [17]: 7.59%
selectivity ratio [10]: 2 to 16
Activity (Candida albicans [18]): Active
MIC80 (Candida albicans [11]): 0.5 µg/mL (≈ 0.86 µM)
selectivity ratio [12]: 2 to 16
inhibition (Candida albicans [13]): Active
Activity [14]: 65.4%
